According to US20260284049A1 (BRISTOL-MYERS SQUIBB COMPANY, priority 2023, published 2026):
Like-named read-outs stand apart in the source and are kept apart here. Values belong to the compound of their own block, whether it stands above or below them.

How the values were obtained:
[1] = test system: VTE prevention in orthopedic surgery; conditions: cited from earlier work; for VTE prevention in orthopedic surgery vs enoxaparin 40 mg once daily: historical Phase 3 studies; for bleeding: Phase 2 orthopedic surgery studies and in combination with antiplatelets after an ACS
[2] = test system: QT/QTc interval (cardiac repolarization); assay type: in vivo, human
Text: The upper bound of two-sided 90% CI for the largest difference in mean change from baseline in QTc intervals (ΔQTc; […].
A total of 66 participants were enrolled in the study and randomly assigned to 1 of 4 possible treatment sequences. […].
Forty-five (68.2%) participants completed all 4 periods with study intervention as planned. […]

clinical [3] = conditions: human, in vivo, po
Text: (§1) (AXIOMATIC-TKR Phase II).
(§2) Assessment of the dose-response for the occurrence of any bleeding was a secondary objective.

[4] = test system: cardiac potassium (hERG/IKr) channel; assay: In vitro cardiac potassium channel current inhibition; assay type: cell-based; conditions: concentrations that greatly exceed unbound plasma concentrations
[5] = test system: participants with ischemic stroke or TIA; conditions: for Hemorragic Stroke Incidence Rate (n/N %) / Subjects With Hemorragic Stroke n: up to Day 21
Text: The study enrolled participants ≥40 years of age who had ischemic stroke or TIA. Ischemic stroke was defined as a neurological deficit attributable to a non-lacunar, acute brain infarction detected by neuroimaging and relevant to the clinical symptoms and National Institutes of Health Stroke Score (NIHSS) ≤7 at the time of randomization. TIA was defined as acute onset neurological deficit attributable to focal ischemia of the brain by history or examination, with complete resolution of the deficit and no brain infarction on neuroimaging and ABCD score ≥6 or presence of motor symptoms. Evidence of relevant intracranial or cervical arterial atherosclerotic plaque, ulceration or thrombus in a feeding artery documented by imaging was required regardless of whether the index event was ischemic stroke or TIA, and all participants were required to have a Modified Rankin Score ≤3 before the index event. […] Following informed consent, participants received ASA 100 mg QD and a single loading dose of clopidogrel 300 mg if not already given as standard of care. […] A second MRI was performed on Day 90±6 days. All participants were required to remain on study treatment until the Day 90 MRI was performed up to Day 96.
From 27 Jan. […] The 200 mg BID arm was opened on 5 Jun.

thrombin generation = assay: AXIOMATIC-TKR: Thrombin Generation Assay (TGA): peak height, ETP, lag time; assay type: in vivo, human; conditions: Milvexian 25 mg QD; Day 10-14
Text: as §1
As used herein, “Thrombin Generation Assay (TGA)” is a global coagulation assay that evaluates the thrombogenic capacity of a plasma sample and has been proposed that it may better reflect prothrombotic or hemorrhagic states than conventional clotting assays. In the traditional TGA, coagulation of citrated plasma is initiated through the extrinsic pathway by adding tissue factor, phospholipids, and calcium. For this study, in the in-vitro thrombin generation assay (TGA) using human platelet-rich plasma, and a kaolin slurry was used instead to initiate coagulation through the contact activation pathway. Thrombin generation is continuously monitored through the product released by cleavage of a thrombin-specific fluorogenic substrate.
as §2
(§3) PD analyses were performed on the PD analysis set, defined as subjects who had at least one valid blood sample drawn for PD. Descriptive statistics (N, mean, SD, median, range, CV (%) and IQ range) were used to summarize PD response at each nominal sampling time point by treatment group. Changes from baseline were summarized when applicable. PD response outside of limit of quantitation were not to be imputed and were to be noted in the summary statistics.

[6] = test system: activated partial thromboplastin time (aPTT); assay: AXIOMATIC-TKR: aPTT and ratio to baseline; assay type: in vivo, human
Description: In some embodiments, aPTT is measured as follows: Plasma samples are incubated with Actin FS aPTT assay reagent containing a standard amount of phospholipid and contact activator (ellagic acid) which activates the intrinsic coagulation pathway. After incubating for 3 minutes, calcium chloride is added to initiate coagulation and formation of a fibrin clot is measured optically. The time to clot formation (measured in seconds) is reported as the Activated Partial Thromboplastin Time (aPTT). […]
as §3

clinical [7] = conditions: human, in vivo, po, median Tmax, healthy volunteers
[8] = test system: participants undergoing primary unilateral elective TKR surgery
Factor XI Activity = Factor XI Activity (Homo sapiens, UniProt P03951); assay: AXIOMATIC-TKR: FXI clotting activity (FXI:c); assay type: in vivo; set-up: dose or concentration left out as unconfirmed
Description: As used herein, “Factor XI Clotting Activity” is determined utilizing an aPTT-based 1-stage clotting time assay. Serial dilutions of normal pooled plasma are mixed with FXI-depleted plasma and the clotting times are measured according to standard aPTT protocol, to establish a reference range. Subject test plasma is treated in the same way and compared with the reference plasma.
In some embodiments, the Factor XI Clotting Activity is measured as follows: Factor XI (FXI) activity is measured using a modification of the activated partial thromboplastin time (aPTT) using Actin FS (Siemens Healthcare) on the Siemens BCS® XP analyzer. […] The reference standard, at approximately 100%, is diluted by the BCS® XP analyzer in saline to generate pre-selected calibration levels of FXI. The calibration curve is plotted with FXI activity in percent (%) on the x-axis and clotting time in seconds on the y-axis. A log/lin regression curve fit is used. […] APTT reagent (Actin FS) is added and the mixture is incubated. Following incubation, calcium chloride is added to the mixture and the time to clot formation (measured optically) is compared to the time on the calibration curve. Samples are tested at the base dilution (1:10) prepared by the BCS® XP in saline.
as §2, §3

[9] = 40 mg QD subcutaneous, Day 1 2 h
[10] = 40 mg QD subcutaneous, Day 1 4 h
[11] = 40 mg QD subcutaneous, Day 2 Predose
[12] = 40 mg QD subcutaneous, Day 4 4 h
[13] = 40 mg QD subcutaneous, Day 4 Predose
[14] = 40 mg QD subcutaneous, Day 10-14

Sequence of Factor XI Activity (P03951 19-625): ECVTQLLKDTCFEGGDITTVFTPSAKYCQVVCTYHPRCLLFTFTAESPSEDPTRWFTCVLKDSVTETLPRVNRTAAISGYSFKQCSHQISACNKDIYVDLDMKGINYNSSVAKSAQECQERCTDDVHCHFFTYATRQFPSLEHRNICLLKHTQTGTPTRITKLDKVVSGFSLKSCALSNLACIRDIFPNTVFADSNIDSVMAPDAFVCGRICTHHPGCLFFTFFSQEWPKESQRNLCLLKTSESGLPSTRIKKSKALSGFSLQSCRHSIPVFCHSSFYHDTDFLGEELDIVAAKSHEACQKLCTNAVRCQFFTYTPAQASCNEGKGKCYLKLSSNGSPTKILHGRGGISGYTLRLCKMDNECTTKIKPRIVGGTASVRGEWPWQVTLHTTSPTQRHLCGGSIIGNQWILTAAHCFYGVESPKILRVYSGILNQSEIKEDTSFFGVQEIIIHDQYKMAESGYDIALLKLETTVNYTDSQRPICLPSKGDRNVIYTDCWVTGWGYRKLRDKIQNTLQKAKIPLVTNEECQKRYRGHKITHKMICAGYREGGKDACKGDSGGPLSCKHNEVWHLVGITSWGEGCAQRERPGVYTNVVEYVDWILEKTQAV

Compound: COc1ccc(-n2nc(C(N)=O)c3c2C(=O)N(c2ccc(N4CCCCC4=O)cc2)CC3)cc1 [apixaban]
- VTE prevention in orthopedic surgery vs enoxaparin 40 mg once daily ([1]; 2.5 mg twice daily): superior to enoxaparin
- bleeding [1]: dose-related bleeding

Compound: C[C@@H]1CCC[C@H](n2cnc(-c3cc(Cl)ccc3-n3cc(Cl)nn3)cc2=O)c2cc(ccn2)-c2c(cnn2C(F)F)NC1=O [milvexian, (5R,9S)-9-(4-(5-chloro-2-(4-chloro-1H-1,2,3-triazol-1-yl)phenyl)-6-oxopyrimidin-1(6H)-yl)-2^1-(difluoromethyl)-5-methyl-2^1H-3-aza-1(4,2)-pyridina-2(5,4)-pyrazolacyclonaphan-4-one]
- changes over time in HR, RR interval, PR interval, or QRS width ([2]; 100 mg and 200 mg twice daily): No consistent or clinically relevant changes
- treatment-emergent QTcF or QTcB >480 ms or changes from baseline >60 ms ([2]; 100 mg and 200 mg twice daily for 4 days): No treatment-emergent actual values of QTcF or QTcB >480 ms or changes from baseline >60 ms were observed
- upper bound of two-sided 90% CI for the largest ΔΔQTc (QTcF) ([2]; supratherapeutic 200 mg twice daily as solution): less than 10 milliseconds
- upper bound of two-sided 90% CI for the largest ΔΔQTc (QTcF) ([2]; therapeutic 100 mg twice daily as capsule): less than 10 milliseconds
- QT/QTc interval prolongation ([2]; therapeutic (100 mg) and supratherapeutic (200 mg) doses, ICH E14): does not show evidence of QT/QTc interval prolongation of clinical or regulatory concern
- Tmax at 96 h (clinical [3]; Day 4, 25 mg and 100 mg twice daily): ~2 h
- Tmax at 96 h (clinical [3]; Day 4, 50 mg and 200 mg once daily): ~4 h
- inhibition of cardiac potassium (hERG/IKr) channel currents [4]: weak to moderate potency
- Hemorragic Stroke Incidence Rate (n/N %) ([5]; 25 mg BID): 0 (0) %
- Subjects With Hemorragic Stroke n ([5]; 25 mg BID): 0 (0)
- New Ischemic Stroke, MI and All Cause Death: Subjects With Event n ([5]; 25 mg BID, up to Day 90): 15
- Hemorragic Stroke Incidence Rate (n/N %) ([5]; 25 mg QD): 0 (0) %
- Subjects With Hemorragic Stroke n ([5]; 25 mg QD): 0 (0)
- Ischemic Stroke (n/N %) ([5]; 25 mg QD, up to Day 90): 4.6%
- New Ischemic Stroke, MI and All Cause Death: Subjects With Event (n/N %) ([5]; 25 mg QD, up to Day 90): 5.2%
- HR for clinical ischemic strokes vs placebo ([5]; 25 mg twice daily, 95% CI 0.36-1.30): 0.69
- Hemorragic Stroke Incidence Rate (n/N %) ([5]; 50 mg BID): 0 (0) %
- Subjects With Hemorragic Stroke n ([5]; 50 mg BID): 0 (0)
- Hemorragic Stroke Incidence Rate (n/N %) ([5]; 100 mg BID): 0 (0) %
- Subjects With Hemorragic Stroke n ([5]; 100 mg BID): 0 (0)
- New Ischemic Stroke, MI and All Cause Death: Subjects With Event (n/N %) ([5]; 100 mg BID, up to Day 90): 5.2%
- rate of early treatment discontinuation ([5]; 200 mg BID, primarily due to AEs): 31.6%
- Hemorragic Stroke Incidence Rate (n/N %) ([5]; 200 mg BID): 0 (0) %
- Subjects With Hemorragic Stroke n ([5]; 200 mg BID): 0 (0)
- New Ischemic Stroke, MI and All Cause Death: Subjects With Event (n/N %) ([5]; 200 mg BID, up to Day 90): 9.4%
- ETP Lag Time, Measured Value, Med (thrombin generation): 10.33 min
- aPTT Measured Value, Med ([6]; 50 mg QD, Day 4 4 h): 52 s
- Tmax (clinical [7]; once daily): 2 to 3 h
- Tmax (clinical [7]; twice daily): ~3 h
- dose-response relationship for bleeding events ([8]; AXIOMATIC-TKR or AXIOMATIC-SSP): No dose-response relationship was observed
- fatal bleeding and symptomatic intracranial hemorrhage ([8]; Phase 2 studies): No fatal bleeding and no increases in symptomatic intracranial hemorrhage
- Total VTE, participants n ([8]; milvexian BID dose regimens (N=518)): 63

Compound: COc1c(N2C[C@@H]3CCCN[C@@H]3C2)c(F)cc2c(=O)c(C(=O)O)cn(C3CC3)c12 [moxifloxacin, reference compound]
- participants with treatment-emergent change from baseline of QTcB >60 ms ([2]; single dose of 400 mg): 1.7%

Compound: O=C(NC[C@H]1CN(c2ccc(N3CCOCC3=O)cc2)C(=O)O1)c1ccc(Cl)s1 [rivaroxaban]
- VTE prevention in orthopedic surgery vs enoxaparin 40 mg once daily ([1]; 10 mg once daily): superior to enoxaparin
- bleeding [1]: dose-related bleeding

- Factor XI Activity Measured Value, Mean (Factor XI Activity; Day 1 4 h): 1.06 fraction of 1
- Factor XI Activity Measured Value, Med (Factor XI Activity; Day 1 4 h): 1.07 fraction of 1
- Factor XI Activity Measured Value, Mean (Factor XI Activity; Day 10-14): 1.36 fraction of 1
- Factor XI Activity Measured Value, Med (Factor XI Activity; Day 10-14): 1.39 fraction of 1
Compound: enoxaparin
- aPTT Measured Value, Mean [6, 9]: 37.03 s
- aPTT Measured Value, Med [6, 9]: 27.5 s
- aPTT Measured Value, Mean [6, 10]: 29.14 s
- aPTT Measured Value, Med [6, 10]: 27.75 s
- aPTT Measured Value, Mean [6, 11]: 28.11 s
- aPTT Measured Value, Med [6, 11]: 27.4 s
- aPTT Measured Value, Mean [6, 12]: 27.37 s
- aPTT Measured Value, Med [6, 12]: 26.1 s
- aPTT Measured Value, Mean [6, 13]: 26.03 s
- aPTT Measured Value, Med [6, 13]: 25.8 s
- aPTT Measured Value, Mean [6, 14]: 27.8 s
- aPTT Measured Value, Med [6, 14]: 25.9 s
- Total VTE, participants n ([8]; 40 mg QD subcutaneous (N=252)): 54
- total venous thromboembolism (VTE) rate ([8]; 40 mg once daily subcutaneous): 21.4%
